Data on 40 molecules can be found in ChEMBL document CHEMBL5729163, “Substituted cyclohexyl compounds as NOP inhibiiors” (2022).

For the assay, the target named is Nociceptin receptor (Homo sapiens, UniProt P41146). Kind of assay: Cell-Based NOP Assay: Formula (I) compounds were tested for antagonism of the nociceptin receptor (NOP) in a cell-based cAMP assay, using the LANCE cAMP Detection Kit, Perkin Elmer (Waltham, Mass.). This assay (LANCE cAMP) is a homogeneous, time-resolved fluorescence resonance energy transfer (TR-FRET) immunoassay designed to measure cAMP produced upon modulation of adenylyl cyclase activity by G protein-coupled receptors (GPCRs).ProtocolCells expressing human opioid NOP (ValiScreen cell line, cat #ES-230-C Perkin Elmer (Waltham, Mass.) were dispensed in simulation buffer (5 mM Hepes, 0.1% BSA, 0.5 mM IBMX in Hanks Buffered Saline Solution) at 2.5 μL cells per well (400 cells/well) into a 1536 white TC-treated assay plate. Compound was then added and plates were incubated for 15 minutes at room temperature. To each well was added 2.5 μL of a solution containing forskolin (3 μM final) and nociceptin peptide (390 pM final) diluted in stimulation buffer, and the plates were incubated for 30 minutes at room temperature. To each well was dispensed 5 μL of LANCE Ultra detection (1:300 dilution of anti-cAMP ULight with a 1:100 dilution of Eu-cAMP tracer diluted in cAMP Detection Buffer) reagent, and the plates were incubated for 1 hr at room temperature. The plate was then read on the ViewLux microplate reader (Perkin Elmer, Waltham, Mass.) using the LANCE 1536 protocol with 60 second exposure times and 50 μs delay. This protocol has an excitation wavelength of 340 nm (DUG11 filter) and emission wavelengths of 615 nm (Eu-Donor) and 665 nm (Alexa 647 cAMP antibody acceptor).Data AnalysisData was analyzed, normalized, and visualized using ACAS (John McNeil & Co.). Efficacy was calculated using activity of the vehicle (DMSO) as 0% efficacy and the activity of the corresponding reference positive control (SCH 221510, Tocris Bioscience (Pittsburgh, Pa.), Catalog number 3240) as 100% efficacy. Activity was calculated as the ratio of donor and acceptor emissions. All curve fits and IC50 determinations were performed using a non-linear regression model. The IC50 value was measured as the concentration at which half-maximal response was calculated.
Sequence of Nociceptin receptor (P41146 whole entry): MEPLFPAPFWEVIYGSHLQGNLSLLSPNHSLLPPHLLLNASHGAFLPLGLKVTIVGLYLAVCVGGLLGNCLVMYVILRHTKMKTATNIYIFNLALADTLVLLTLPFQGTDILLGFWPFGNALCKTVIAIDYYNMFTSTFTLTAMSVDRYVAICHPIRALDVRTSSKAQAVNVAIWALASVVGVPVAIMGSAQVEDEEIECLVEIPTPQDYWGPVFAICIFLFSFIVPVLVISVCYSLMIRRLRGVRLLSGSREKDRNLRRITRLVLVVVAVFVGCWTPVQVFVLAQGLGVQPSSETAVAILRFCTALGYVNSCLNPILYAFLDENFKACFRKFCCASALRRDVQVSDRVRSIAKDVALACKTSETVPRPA
`Fc1cc(Cl)ccc1C1CCC(CCNC2CCCCC2)CC1` (stereo not given): the IC50 is 1 to 10 nM. As for `Clc1cccnc1[C@H]1CC[C@@H](CCNC2CCOCC2)CC1`, the IC50 was 10 to 100 nM. As for `NC(=O)C1(NCC[C@H]2CC[C@H](c3c(F)cc(F)cc3Cl)CC2)CCOCC1`, the IC50 is 1 to 10 nM. Then `N#C[C@H]1CC[C@@H](NCC[C@H]2CC[C@@H](c3ccc(F)cc3C(F)(F)F)CC2)CC1`, with under 1 nM; and `Cc1c(C#N)cccc1[C@H]1CC[C@@H](CCNC2CCOCC2)CC1`, with 100 to 1000 nM; and `Fc1cnc([C@H]2CC[C@@H](CCNC3CCOCC3)CC2)nc1`, with 100 to 1000 nM. As to `NC(=O)N1CCC(NCCC2CCC(c3ncc(F)cc3Cl)CC2)CC1` (stereo not given), the IC50 was 100 to 1000 nM. Turning to `Cc1cccnc1C1CCC(CCNC2CCCCC2)CC1` (stereo not given), the concentration for half-maximal inhibition (IC50) is 100 to 1000 nM. In the case of `CNC(=O)C1(NCCC2CCC(c3ncc(F)cc3Cl)CC2)CCCC1` (stereo not given) it was 10 to 100 nM; in that of `Clc1cccnc1C1CCC(CCNC2CCCCC2)CC1` (stereo not given), 100 to 1000 nM. In the case of `Clc1ccccc1C1CCC(CCNC2CCOCC2)CC1` (stereo not given) it was 1 to 10 nM; in that of `Cc1cccnc1C1CCC(CCNC2(C)CCCC2)CC1` (stereo not given), 100 to 1000 nM; in that of `CC1(NCC[C@H]2CC[C@@H](c3ccc(F)cc3Cl)CC2)CCNC(=O)C1` (stereo not given in full), 10 to 100 nM.

`Fc1ccc(Cl)c(C2CCC(CCNC3CCOCC3)CC2)c1` (stereo not given): the IC50 is 1 to 10 nM. Then `COCC1(NCC[C@H]2CC[C@@H](c3ncc(F)cc3Cl)CC2)CCOCC1`, with 10 to 100 nM; and `COCC1(NCCC2CCC(c3ccccc3Cl)CC2)CCOCC1` (stereo not given), with 10 to 100 nM. Then `Cc1c(F)c(F)ccc1[C@H]1CC[C@@H](CCNC2(C(N)=O)CCOCC2)CC1`, with 10 to 100 nM; and `Cc1cc(F)ccc1C1CCC(CCNC2(C)CCCC2)CC1` (stereo not given), with 10 to 100 nM; and `Cc1ccncc1[C@H]1CC[C@@H](CCNC2CCOCC2)CC1`, with 100 to 1000 nM.

`CNC(=O)C1(NCC[C@H]2CC[C@@H](c3ccc(F)cc3F)CC2)CCOCC1`: the IC50 was 10 to 100 nM.

With `COCC1(NCCC2CCC(c3ncc(F)cc3Cl)CC2)CCOCC1` (stereo not given), the IC50 was 100 to 1000 nM. In the case of `Fc1ccc([C@H]2CC[C@@H](CCNC3CCCC3(F)F)CC2)c(Cl)c1` (stereo not given in full) it was 10 to 100 nM; in that of `NC(=O)C1(NCC[C@H]2CC[C@@H](c3ccc(F)cc3Cl)CC2)CCOC1` (stereo not given in full), 100 to 1000 nM; in that of `Fc1cnc([C@H]2CC[C@H](CCNC3CCOCC3)CC2)c(Cl)c1`, 1 to 10 nM. Take `CNC(=O)C1(NCC[C@H]2CC[C@H](c3ncc(F)cc3Cl)CC2)CCOCC1`: the IC50 is 1 to 10 nM. As to `COCC1(NCCC2CCC(c3cccc(F)c3Cl)CC2)CCOCC1` (stereo not given), the IC50 is 100 to 1000 nM. `CC1(NCC[C@H]2CC[C@H](c3ncc(F)cc3Cl)CC2)CCNC(=O)C1` (stereo not given in full): the IC50 is 10 to 100 nM. In the case of `Fc1cccc(Cl)c1C1CCC(CCNC2CCCCC2)CC1` (stereo not given) it was 1 to 10 nM. In the case of `Cc1cnccc1C1CCC(CCNC2CCOCC2)CC1` (stereo not given) it was 100 to 1000 nM; in that of `NC(=O)C1(NCC[C@H]2CC[C@@H](c3ncc(F)cc3Cl)CC2)CCOCC1`, 10 to 100 nM. Then `NC(=O)C1(NCCC2CCC(c3cc(F)ccc3Cl)CC2)CCCC1` (stereo not given), with 100 to 1000 nM; and `Cc1cc(F)c(F)cc1[C@H]1CC[C@@H](CCNC2(C(N)=O)CCOCC2)CC1`, with 10 to 100 nM. Take `Fc1ccc([C@H]2CC[C@H](CCNC3CCOCC3)CC2)c(Cl)c1`: the IC50 was 1 to 10 nM. In the case of `CNC(=O)C1(NCCC2CCC(c3ncccc3Cl)CC2)CCCC1` (stereo not given) it was 100 to 1000 nM. Then `O=C1C[C@@H](NCC[C@H]2CC[C@H](c3ncc(F)cc3Cl)CC2)CCN1`, with 100 to 1000 nM.

For the molecule `Cc1cc(F)c(F)cc1[C@H]1CC[C@H](CCNC2(C(N)=O)CCOCC2)CC1`, the IC50 is 100 to 1000 nM. Consider `OCC1(NCC[C@H]2CC[C@@H](c3ccc(F)cc3Cl)CC2)CCOCC1`, for which the IC50 is 1 to 10 nM. Then `CN1CCC(NCCC2CCC(c3cc(F)ccc3Cl)CC2)CC1` (stereo not given), with 100 to 1000 nM; and `CC1(NCCC2CCC(c3ncc(F)cc3Cl)CC2)CCCC1` (stereo not given), with 10 to 100 nM. In the case of `OC1COCCC1NCC[C@H]1CC[C@@H](c2ccc(F)cc2Cl)CC1` (stereo not given in full) it was under 1 nM.
